Structures are written as SMILES.

For one series, the system named is DNA. In words: Stokes shift from absorption and emission spectra, in presence of DNA. It counts as physicochemical. To be noted: present disclosure. How it is done:
The UV-vis absorption and emission spectra are recorded on Agilent Technologies Cary series UV-vis-NIR absorbance and Cary eclipse fluorescence spectrophotometers, respectively. Thermal denaturation (UV-melting) studies are carried out on Cary 5000 UV-vis-NIR spectrophotometer equipped with Cary temperature controller in the range of 10° C. to 90° C. with a ramp rate of 1° C./min. The variable temperature/wavelength mode is used. Absorption is monitored at 260 nm with regular 5° C. intervals. Melting temperatures (Tm) of DNA samples are calculated from the first derivatives of the absorption vs. temperature curves (thermal denaturation or melting curves) obtained by monitoring at 260 nm.
The molecular interactions of QCy-DT is studied by evaluating the absorption and emission properties in Tris-buffer (100 mM, pH=7.4) under ambient conditions. […] The NIR-fluorescence of QCy-DT arises due to extended through the Cy7 backbone and ICT process. The weak or non-fluorescent behavior of dye molecules in buffer solution is mainly attributed to the intramolecular twisting processes, which cause quenching of the fluorescence of cyanine dyes, solvation with water molecules also aids the fluorescence quenching by means of deactivation of […]. […]

A short description of series [1]: Fluorescence quantum yield in absence of DNA. Type of series: physicochemical. How it is done:
Cresyl violet perchlorate in ethanol (ϕ=0.54) is used as the standard for the fluorescence quantum yield calculation using the absorption of the test sample. The emission spectral area is obtained in the 550-800 nm regions. Dilute solutions (10^−6 M) are used to minimize reabsorption effects of the dyes. Quantum yields are determined using the following equation, ϕs=ϕr(Fs/Fr)×(Ar/As)×(ns^2/nr^2)
Where, ϕr and ϕs are the quantum yield of reference and sample respectively, Fr and Fs are the integrated intensities (areas) of standard and sample spectra, nr and ns are the refractive indices of the reference and sample solution, Ar and As are the absorbance intensities of reference and sample respectively.

Series [2] deals with DNA containing 5′-CAATTG-3′ core. In words: Fluorescence enhancement, local variations 5′-X(AATT)Y-3′. It counts as binding. How it is done: (§1) All the chemicals, reagents, single-stranded oligos (dA20, dT20, dG20, dC20), self-complementary oligos {d(ATAT)5, (D1)mix, Drew-AT, Calf-Thymus DNA (CT-DNA), (DM1, DM2, DM3, DM4, DM5, DM6 and DM7)}, RNA, were purchased from Sigma-Aldrich. ^1H and ^13C NMR spectra were recorded on a Bruker AV-400 MHz spectrometer with chemical shifts reported as parts per million (ppm) (in DMSO-d6, tetramethylsilane as an internal standard) at 20° C. UV-vis absorption and emission spectra were measured in quartz cuvettes of 1 cm path length. High resolution mass spectra (HRMS) were obtained on Agilent Technologies 6538 UHD Accurate-Mass Q-TOF LC/MS spectrometer. All biophysical studies (UV-vis, fluorescence and Cirular dichroism) are carried out at the concentration 0-5 μM of probe, volume=500 μL, temperature=25° C. and time of incubation=2 minutes. HeLa cells and MCF7 cells used in the biological studies are obtained from “Molecular reproduction, development and genetics lab, Indian institute of science, Bangalore, India”
(§2) Stock solutions of QCy-DT are prepared in double-distilled (dd) water in the order of 10^−3 M and stored at about −10° C. […]
(§3) The UV-vis absorption and emission spectra are recorded on Agilent Technologies Cary series UV-vis-NIR absorbance and Cary eclipse fluorescence spectrophotometers, respectively. […] Absorption is monitored at 260 nm with regular 5° C. intervals. Melting temperatures (Tm) of DNA samples are calculated from the first derivatives of the absorption vs. temperature curves (thermal denaturation or melting curves) obtained by monitoring at 260 nm.
(§4) To understand finer details of the interactions of QCy-DT with local variations around 5′-AATT-3′ sequence in the minor groove of DNA duplex, fluorescence studies are performed in the presence of DNA containing core hexanucleotide sequences such as 5′-X(AATT)Y-3′ (where X=A/T/G/C and Y is complementary base of X) (FIG. 5a). […] Remarkably, enormous fluorescence enhancement is observed in the presence of DNA with 5′-AAATTT-3′ core, which is ˜4-folds higher than the DNA with 5′-AATT-3′ core sequence alone. […]

For series [3], the system named is DNA containing 5′-GAATTC-3′ core. The description is as above. It counts as binding. How it is done: as §1, §2, §3, §4
The next series deals with 5′-TAATTA-3′. The series is described as above. It counts as binding. To be noted: folds lesser than 5′-AATT-3′ sequence. Here is the method: as §1, §2, §3, §4

`C[n+]1c(/C=C/c2ccc(O)c(/C=C/c3sc4ccccc4[n+]3C)c2)sc2ccccc21` [QCy-DT, quinone cyanine-dithiazole]: in the series on DNA, the “Stokes shift in presence of DNA” value was 86 nm. In addition, the “Quantum Yield (ΦF)” value in series [1] (Glycerol) is about 0.07; in series [1] (Tris-HCl buffer 100 mM, pH 7.4, probe alone), 0.0039. Also, the fluorescence enhancement result in series [2] and in series [3] was “very weak fluorescence enhancement” in each case. Further, in the series on 5′-TAATTA-3′, the “fluorescence enhancement with T at X in 5′-X(AATT)Y-3′, lesser than 5′-AATT-3′” value is about 1.5 fold.
